Like-named read-outs stand apart in the source and are kept apart here.
Columns and labels:
KRAS (WT) = target: T1, KRAS (WT) (Homo sapiens, UniProt P01116); assay: In-vitro RAS-RAF binding assay (RRB), HTRF/FRET; format: biochemical; details: Table 2, average of multiple runs of each compound
T1 construct: Biotinylated KRAS protein amino acids 1-169 (produced at Erasca); made in house
In short: (§1)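 Compounds preincubated with terbium-labelled biotinylated KRAS (aa 1-169, 30 nM) before 60 min SOS1-catalysed exchange to GTPgS. Binding of the d2-labelled cRAF RBD (30 nM) is read as FRET at equilibrium in duplicate. Buffer: 50 mM HEPES pH 7.5, 100 mM NaCl, 1 mM MgCl2, 1 mM DTT.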

KRAS G12D = KRAS G12D (Homo sapiens, UniProt P01116, G12D); assay: In-vitro RAS-RAF binding assay (RRB), HTRF/FRET; format: biochemical; set-up: Biotinylated KRAS protein amino acids 1-169 (produced at Erasca); made in house; details: Table 2, average of multiple runs of each compound
In short: as §1

[1] = read-out: Inhibition of RAS-RAF Binding (in-vitro) KRAS (WT) IC50
[2] = read-out: Inhibition of RAS-RAF Binding (in-vitro) KRAS (G12D) IC50

Sequence of KRAS G12D (P01116 1-169 isoform P01116-2 G12D): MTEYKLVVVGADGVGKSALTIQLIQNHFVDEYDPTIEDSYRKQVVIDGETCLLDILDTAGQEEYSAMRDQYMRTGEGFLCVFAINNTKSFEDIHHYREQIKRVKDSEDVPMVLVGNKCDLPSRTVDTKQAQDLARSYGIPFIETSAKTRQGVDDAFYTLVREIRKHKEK
T1 sequence (P01116 1-169 isoform P01116-2): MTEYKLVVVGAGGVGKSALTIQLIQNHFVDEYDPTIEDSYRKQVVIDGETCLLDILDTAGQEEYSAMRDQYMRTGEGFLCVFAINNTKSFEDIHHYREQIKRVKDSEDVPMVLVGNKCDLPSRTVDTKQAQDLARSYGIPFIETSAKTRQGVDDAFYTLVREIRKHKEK

| IC50 (KRAS (WT); [1]) | IC50 (KRAS G12D; [2]) | Compound | IC50 (KRAS (WT); Inhibition of RAS-RAF Binding (in-vitro) KRAS (WT) IC50 (nM)) | IC50 (KRAS G12D; Inhibition of RAS-RAF Binding (in-vitro) KRAS (G12D) IC50 (nM)) |
| --- | --- | --- | --- | --- |
| 34.3 nM | 8.92 nM | C#Cc1c(F)ccc2cc(O)cc(-c3ncc4c(N5CC6CCC(C5)N6)nc(OC[C@@H]5CCCN5CCCOCCC(=O)N[C@H](C(=O)N5C[C@H](O)C[C@H]5C(=O)N[C@@H](C)c5ccc(-c6c(F)ccc(F)c6F)cc5)C(C)(C)C)nc4c3F)c12 [Example 44, (2S,4R)-1-((2S)-2-(3-(3-((2S)-2-(((4-(3,8-diazabicyclo[3.2.1]octan-3-yl)-7-(8-ethynyl-7-fluoro-3-hydroxynaphthalen-1-yl)-8-fluoropyrido[4,3-d]pyrimidin-2-yl)oxy)methyl)pyrrolidin-1-yl)propoxy)propanamido)-3,3-dimethylbutanoyl)-4-hydroxy-N-((S)-1-(2′,3′,6′-trifluoro-[1,1′-biphenyl]-4-yl)ethyl)pyrrolidine-2-carboxamide] |  |  |
| > 10000 nM | 13.4 nM | C#Cc1c(F)ccc2cc(O)cc(-c3ncc4c(N5CC6CCC(C5)N6)nc(OCCN5CCC(F)(COc6cc([C@H](C(=O)N7C[C@H](O)C[C@H]7C(=O)N[C@@H](C)c7ccc(-c8c(F)cccc8F)cc7)C(C)C)on6)CC5)nc4c3F)c12 [Example 62, (2S,4R)-1-((2R)-2-(3-((1-(2-((4-(3,8-diazabicyclo[3.2.1]octan-3-yl)-7-(8-ethynyl-7-fluoro-3-hydroxynaphthalen-1-yl)-8-fluoropyrido[4,3-d]pyrimidin-2-yl)oxy)ethyl)-4-fluoropiperidin-4-yl)methoxy)isoxazol-5-yl)-3-methylbutanoyl)-N-((S)-1-(2′,6′-difluoro-[1,1′-biphenyl]-4-yl)ethyl)-4-hydroxypyrrolidine-2-carboxamide] |  |  |
| 24.9 nM | 7.78 nM | C#Cc1c(F)ccc2cc(O)cc(-c3ncc4c(N5CC6CCC(C5)N6)nc(OC[C@@H]5CCCN5CCCOCCC(=O)N[C@H](C(=O)N5C[C@H](O)C[C@H]5C(=O)N[C@@H](C)c5ccc(-c6c(F)cccc6Cl)cc5)C(C)(C)C)nc4c3F)c12 [Example 42, (2S,4R)-1-((2S)-2-(3-(3-((2S)-2-(((4-(3,8-diazabicyclo[3.2.1]octan-3-yl)-7-(8-ethynyl-7-fluoro-3-hydroxynaphthalen-1-yl)-8-fluoropyrido[4,3-d]pyrimidin-2-yl)oxy)methyl)pyrrolidin-1-yl)propoxy)propanamido)-3,3-dimethylbutanoyl)-N-((S)-1-(2′-chloro-6′-fluoro-[1,1′-biphenyl]-4-yl)ethyl)-4-hydroxypyrrolidine-2-carboxamide] |  |  |
| 65.9 nM | 9.55 nM | C#Cc1c(F)ccc2cc(O)cc(-c3ncc4c(N5CC6CCC(C5)N6)nc(OC[C@@H]5CCCN5CCCOCCC(=O)N[C@H](C(=O)N5C[C@H](O)C[C@H]5C(=O)N[C@@H](C)c5ccc(-c6cc(F)cc(F)c6F)cc5)C(C)(C)C)nc4c3F)c12 [Example 58, (2S,4R)-1-((2S)-2-(3-(3-((2S)-2-(((4-(3,8-diazabicyclo[3.2.1]octan-3-yl)-7-(8-ethynyl-7-fluoro-3-hydroxynaphthalen-1-yl)-8-fluoropyrido[4,3-d]pyrimidin-2-yl)oxy)methyl)pyrrolidin-1-yl)propoxy)propanamido)-3,3-dimethylbutanoyl)-4-hydroxy-N-((S)-1-(2′,3′,5′-trifluoro-[1,1′-biphenyl]-4-yl)ethyl)pyrrolidine-2-carboxamide] |  |  |
| 568 nM | 9.05 nM | C[C@H](NC(=O)[C@@H]1C[C@@H](O)CN1C(=O)[C@@H](NC(=O)CCCCN1CCC[C@H]1COc1nc(N2CC3CCC(C2)N3)c2cnc(-c3cc(O)cc4cccc(F)c34)c(F)c2n1)C(C)(C)C)c1ccc(-c2cccc(F)c2)cc1 [Example 86, (2S,4R)-1-((2S)-2-(5-((2S)-2-(((4-(3,8-diazabicyclo[3.2.1]octan-3-yl)-8-fluoro-7-(8-fluoro-3-hydroxynaphthalen-1-yl)pyrido[4,3-d]pyrimidin-2-yl)oxy)methyl)pyrrolidin-1-yl)pentanamido)-3,3-dimethylbutanoyl)-N-((S)-1-(3′-fluoro-[1,1′-biphenyl]-4-yl)ethyl)-4-hydroxypyrrolidine-2-carboxamide] |  |  |
| 275 nM | 19.4 nM | C[C@H](NC(=O)[C@@H]1C[C@@H](O)CN1C(=O)[C@@H](NC(=O)CCOCCCN1CCC[C@H]1COc1nc(N2CC3CCC(C2)N3)c2cc(Cl)c(-c3ccc(F)c4sc(N)c(C#N)c34)c(F)c2n1)C(C)(C)C)c1ccc(-c2c(F)cc(F)cc2F)cc1 [Example 37, (2S,4R)-1-((2S)-2-(3-(3-((2S)-2-(((7-(2-amino-3-cyano-7-fluorobenzo[b]thiophen-4-yl)-4-(3,8-diazabicyclo[3.2.1]octan-3-yl)-6-chloro-8-fluoroquinazolin-2-yl)oxy)methyl)pyrrolidin-1-yl)propoxy)propanamido)-3,3-dimethylbutanoyl)-4-hydroxy-N—((S)-1-(2′,4′,6′-trifluoro-[1,1′-biphenyl]-4-yl)ethyl)pyrrolidine-2-carboxamide] |  |  |
| 69 nM | 12.8 nM | Cc1ncsc1-c1ccc([C@H](C)NC(=O)[C@@H]2C[C@@H](O)CN2C(=O)[C@@H](NC(=O)CCCCN2CCC[C@H]2COc2nc(N3CC4CCC(C3)N4)c3cc(Cl)c(-c4ccc(F)c5sc(N)c(C#N)c45)c(F)c3n2)C(C)(C)C)cc1 [Example 84, (2S,4R)-1-((2S)-2-(5-((2S)-2-(((7-(2-amino-3-cyano-7-fluorobenzo[b]thiophen-4-yl)-4-(3,8-diazabicyclo[3.2.1]octan-3-yl)-6-chloro-8-fluoroquinazolin-2-yl)oxy)methyl)pyrrolidin-1-yl)pentanamido)-3,3-dimethylbutanoyl)-4-hydroxy-N-((S)-1-(4-(4-methylthiazol-5-yl)phenyl)ethyl)pyrrolidine-2-carboxamide] |  |  |
| 38.3 nM | 7.68 nM | C#Cc1c(F)ccc2cc(O)cc(-c3ncc4c(N5CC6CCC(C5)N6)nc(OC[C@@H]5CCCN5CCCOCCC(=O)N[C@H](C(=O)N5C[C@H](O)C[C@H]5C(=O)N[C@@H](C)c5ccc(-c6c(F)cccc6C(F)(F)F)cc5)C(C)(C)C)nc4c3F)c12 [Example 43, (2S,4R)-1-((2S)-2-(3-(3-((2S)-2-(((4-(3,8-diazabicyclo[3.2.1]octan-3-yl)-7-(8-ethynyl-7-fluoro-3-hydroxynaphthalen-1-yl)-8-fluoropyrido[4,3-d]pyrimidin-2-yl)oxy)methyl)pyrrolidin-1-yl)propoxy)propanamido)-3,3-dimethylbutanoyl)-N-((S)-1-(2′-fluoro-6′-(trifluoromethyl)-[1,1′-biphenyl]-4-yl)ethyl)-4-hydroxypyrrolidine-2-carboxamide] |  |  |
|  |  | C#Cc1c(F)ccc2cc(O)cc(-c3ncc4c(N5CC6CCC(C5)N6)nc(OC[C@@H]5CCCN5CCCOCCC(=O)N[C@H](C(=O)N5C[C@H](O)C[C@H]5C(=O)N[C@@H](C)c5ccc(N6CCC[C@H]6C(N)=O)cc5)C(C)(C)C)nc4c3F)c12 [Example 46, (2S,4R)-1-((2S)-2-(3-(3-((2S)-2-(((4-(3,8-diazabicyclo[3.2.1]octan-3-yl)-7-(8-ethynyl-7-fluoro-3-hydroxynaphthalen-1-yl)-8-fluoropyrido[4,3-d]pyrimidin-2-yl)oxy)methyl)pyrrolidin-1-yl)propoxy)propanamido)-3,3-dimethylbutanoyl)-N-((S)-1-(4-((S)-2-carbamoylpyrrolidin-1-yl)phenyl)ethyl)-4-hydroxypyrrolidine-2-carboxamide] | 21.4 nM | 5.87 nM |
| 24.7 nM | 7.53 nM | C#Cc1c(F)ccc2cc(O)cc(-c3ncc4c(N5CC6CCC(C5)N6)nc(OC[C@@H]5CCCN5CCCOCCC(=O)N[C@H](C(=O)N5C[C@H](O)C[C@H]5C(=O)N[C@@H](C)c5ccc(-c6cccnc6C(F)(F)F)cc5)C(C)(C)C)nc4c3F)c12 [Example 48, (2S,4R)-1-((2S)-2-(3-(3-((2S)-2-(((4-(3,8-diazabicyclo[3.2.1]octan-3-yl)-7-(8-ethynyl-7-fluoro-3-hydroxynaphthalen-1-yl)-8-fluoropyrido[4,3-d]pyrimidin-2-yl)oxy)methyl)pyrrolidin-1-yl)propoxy)propanamido)-3,3-dimethylbutanoyl)-4-hydroxy-N-((S)-1-(4-(2-(trifluoromethyl)pyridin-3-yl)phenyl)ethyl)pyrrolidine-2-carboxamide] |  |  |
| 162 nM | 14.4 nM | C[C@H](NC(=O)[C@@H]1C[C@@H](O)CN1C(=O)[C@@H](NC(=O)CCOCCCN1CCC[C@H]1COc1nc(N2CC3CCC(C2)N3)c2cc(C(F)(F)F)c(-c3ccc(F)c4sc(N)c(C#N)c34)cc2n1)C(C)(C)C)c1ccc(-c2c(F)cccc2F)cc1 [Example 21, (2S,4R)-1-((2S)-2-(3-(3-((2S)-2-(((7-(2-amino-3-cyano-7-fluorobenzo [b]thiophen-4-yl)-4-(3,8-diazabicyclo[3.2.1]octan-3-yl)-6-(trifluoromethyl)quinazolin-2-yl)oxy)methyl)pyrrolidin-1-yl)propoxy)propanamido)-3,3-dimethylbutanoyl)-N—((S)-1-(2′,6′-difluoro-[1,1′-biphenyl]-4-yl)ethyl)-4-hydroxypyrrolidine-2-carboxamide] |  |  |
